From patent publication US20240400546A1, “COMPOUNDS AND USES THEREOF” (JANSSEN PHARMACEUTICA NV, priority 2016, published 2024)
pEC50, pIC50: −log10 of the molar value. Where two headings read alike, the source gives them in different places.

Key:
[1] = system: yeast strains expressing the human protein α-synuclein; assay: Yeast rescue assay, α-synuclein toxicity (OD600 growth); assay type: cell-based; details: 40 h; for pEC50: read-out: α-Syn EC50
Description: (§1) In a standard yeast assay, a single-use aliquot of cells was thawed on ice and diluted into CSM/glucose (5 mL). Cultures were grown for 8 hours at 30° C. This pre-growth enables the yeast to exit the thaw and begin to grow without expressing aSyn or ApoE4. After 8 hours, cell density (OD600) was determined and cultures diluted to an OD600 of 0.01 in CSM/raffinose for an overnight culture phase at 30° C. During this period, the active glucose repression of the GAL1 promoter was relieved; however, expression of the α-Syn/ApoE4 genes were not yet induced. After ˜16 hours of growth, cultures attain an OD600 of 0.4-0.8 and were ready to apply to assay plates containing compound.
(§2) Compound profiling assays were executed in clear-bottom 384 well plates. First, compound plates were thawed at room temperature for 45′, centrifuged at 1,000×g for 1 minute, and the foil removed. Clear 384 well assay plates were then filled with 15 μL of CSM/galactose. Both compound and media-containing plates were arranged on the Janus workstation and a compound pin tool (384×100 nL slotted pins) used to deliver 100 nL of compounds to each well according to the well map of the compound plate. Based on the previous serial dilution, the final concentration of compound ranged from […] to 12.5 nM. The pin tool was washed iteratively with both 50% DMSO and 100% ethanol between each assay plate. After delivering compound to each assay plate, the overnight CSM/raffinose aSyn or ApoE4 cultures were added at a 2× cell density (0.04 for aSyn and 0.08 for ApoE4) in CSM/galactose to achieve a final assay OD600 of 0.02 and 0.04 for aSyn and ApoE, respectively. The cultures (15 μL per well) were then dispensed to the compound-containing 384 well assay plates using an automated plate filler. Plates were incubated in a humidified 30° C. incubator for 40 or 24 hours for aSyn and ApoE4, respectively. The OD600 of each assay plate was then read with a microplate reader (e.g., Perkin Elmer Envision).
The efficacy and potency of compounds were calculated according to the following. Raw data (OD600 values) were first background corrected to account for OD600 contributed by the plate and media itself. The efficacy (percent above DMSO, herein referred to as “Emax”) was calculated according to the equation: (Experimental well−DMSO control well)/(DMSO control well)*100. […] Normalized dose-response data was fit with a logistic regression curve using Spotfire (TIBCO), or similar curve-fitting software package. EC50 values were then reported along with EMax to provide both efficacy and potency measures for each analog and enable further compound design.

[2] = system: yeast strains expressing the human protein ApoE4; assay: Yeast rescue assay, ApoE4 toxicity (OD600 growth); assay type: cell-based; details: 24 h
Description: as §1
as §2, with “The cultures (15 μL per well) were then dispensed to the compound-containing 384 well assay plates using an automated plate filler. Plates were incubated in a humidified 30° C. incubator for 40 or 24 hours for aSyn and ApoE4, respectively.” left out
The efficacy and potency of compounds were calculated according to the following. […] The efficacy (percent above DMSO, herein referred to as “Emax”) was calculated according to the equation: (Experimental well−DMSO control well)/(DMSO control well)*100. […]

Ole1 = biological target: T1, Ole1 (Saccharomyces cerevisiae, UniProt P21147); assay: Growth inhibition of yeast expressing Ole1 as sole desaturase; assay type: cell-based; details: yeast expressing Ole1 as sole desaturase
T1 construct: expressed in transfected cells; host or cells: S. cerevisiae ole1Δ strain (W303 pdr1Δ pdr3Δ background), plasmid pRS316 with TDH3 promoter and CYC1 terminator
T1 sequence (P21147 1-510): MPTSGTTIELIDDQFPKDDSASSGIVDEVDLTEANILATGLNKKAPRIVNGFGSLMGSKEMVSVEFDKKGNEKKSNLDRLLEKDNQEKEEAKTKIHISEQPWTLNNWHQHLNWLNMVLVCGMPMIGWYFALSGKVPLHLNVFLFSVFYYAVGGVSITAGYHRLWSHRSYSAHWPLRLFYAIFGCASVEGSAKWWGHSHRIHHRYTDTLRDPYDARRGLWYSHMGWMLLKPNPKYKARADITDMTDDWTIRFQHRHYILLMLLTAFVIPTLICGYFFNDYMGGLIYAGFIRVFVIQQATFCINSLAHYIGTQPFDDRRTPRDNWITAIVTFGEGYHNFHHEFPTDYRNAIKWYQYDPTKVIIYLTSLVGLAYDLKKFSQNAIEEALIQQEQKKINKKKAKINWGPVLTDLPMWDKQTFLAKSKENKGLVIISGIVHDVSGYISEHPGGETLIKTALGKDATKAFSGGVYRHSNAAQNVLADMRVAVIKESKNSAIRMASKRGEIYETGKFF
Description: (§3) Strain ole1Δ (yeast ole1 deletion mutant) was constructed by deleting OLE1 with NAT-MX6 in BY4741, amplifying the deletion cassette from the genomic DNA of the resulting strain with primers flanking the ORF by 1000 bp upstream and downstream, transforming the resulting deletion cassette into W303 pdr1Δ pdr3Δ, and plating transformants on YPD media containing G418 (200 μg/mL) and nourseothricin (100 μg/mL) with 0.01% TWEEN®-20 and 0.5 mM oleic and palmitoleic acids.
(§4) The coding sequence of yeast OLE1 was also cloned into this plasmid). These clones were then transformed into the ole1Δ strain and plated on CSM-Ura media (CSM lacking uracil) with 2% glucose (w/v) and independent colonies were isolated and amplified.
(§5) All compound profiling experiments were performed using the same basic protocol. Different genetic backgrounds (e.g., gene deletions) or conditions (e.g., addition of oleic and palmitoleic acid) were replaced as indicated below.
(§6) Yeast were cultured using standard techniques in complete synthetic media (CSM) and yeast nitrogen base supplemented with 2% (w/v) carbon source (glucose, raffinose, or galactose) to regulate the expression of the toxic disease protein. An initial starter culture was inoculated in 3 mL CSM-Glucose media and incubated overnight in a 30° C. shaker incubator (225 rpm). Saturated morning cultures were then diluted 1:20 in fresh CSM-Raffinose media and grown for 6 h to an OD600 (optical density) of ˜0.4-0.8 at 30° C. with shaking.
(§7) Compound administration was performed in two separate steps. First, 15 μL of CSM-Galactose (induces expression of toxic protein) was dispensed into clear 384 well assay plates using a MULTIDROP™ Combi reagent dispenser. […] The cultures described above were then diluted to a 2× concentration (0.03 and 0.08 for alpha-synuclein and ApoE, final OD600 of 0.015 and 0.04) in CSM-Galactose. For wild-type and Ole1/SCD1/SCD5 plasmid-containing strains, the 2× cell density was 0.02. […] For 96-well assays (FIGS. 1A and 1B), compound dilutions in DMSO were generated in 96 well plates and 1 μL was manually pipetted into 96 well clear bottom assay plates.
(§8) For experiments using a plasmid-borne copy of Ole1, SCD1, or SCD5 (FIGS. 3B, 6, and 7), media lacking uracil (SX-Ura, where X is glucose, raffinose, or galactose), was used for all steps of the compound profiling protocol to ensure its maintenance throughout the assay.
(§9) After yeast delivery, assay plates were incubated under humidified conditions at 30° C. for 24 to 40 h. ApoE4 rescue experiments were stopped at 24 h, aSyn experiments at 40 h, Ole1 at 24 h, and SCD1/SCD5 at 40 h. The growth of yeast was monitored by reading the OD600 of each well using a microplate reader (Perkin Elmer EnVision™).

SCD1 [3] = biological target: T2, SCD1 (Homo sapiens, UniProt O00767); assay: Growth inhibition of humanized yeast expressing SCD1 as sole desaturase; assay type: cell-based; details: humanized yeast expressing SCD1
T2 construct: host or cells: S. cerevisiae ole1Δ strain, plasmid pRS316 with TDH3 promoter and CYC1 terminator
T2 sequence (O00767 1-359): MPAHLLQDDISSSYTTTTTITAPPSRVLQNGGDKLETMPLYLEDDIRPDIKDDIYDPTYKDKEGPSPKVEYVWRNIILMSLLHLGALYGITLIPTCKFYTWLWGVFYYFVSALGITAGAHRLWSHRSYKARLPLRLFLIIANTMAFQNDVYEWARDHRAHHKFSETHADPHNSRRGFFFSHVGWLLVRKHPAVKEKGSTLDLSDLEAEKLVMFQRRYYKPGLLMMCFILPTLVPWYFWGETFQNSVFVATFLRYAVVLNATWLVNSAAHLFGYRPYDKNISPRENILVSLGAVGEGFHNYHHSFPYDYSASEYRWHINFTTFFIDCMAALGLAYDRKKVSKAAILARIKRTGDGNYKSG
Outline: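 ole1Δ yeast (W303 pdr1Δ pdr3Δ background) carried plasmid-borne human SCD1, human SCD5 or yeast Ole1 as the sole desaturase and were grown in uracil-lacking galactose medium in 384-well plates. Starting 2× density was OD600 0.02, with incubation at 30 °C. Growth was read as OD600 at 24 h for Ole1 and at 40 h for SCD1 and SCD5.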

SCD5 [4] = biological target: T3, SCD5 (Homo sapiens, UniProt Q86SK9); assay: Growth inhibition of humanized yeast expressing SCD5 as sole desaturase; assay type: cell-based; details: humanized yeast expressing SCD5
T3 construct: host or cells: S. cerevisiae ole1Δ strain, plasmid pRS316 with TDH3 promoter and CYC1 terminator
T3 sequence (Q86SK9 1-330): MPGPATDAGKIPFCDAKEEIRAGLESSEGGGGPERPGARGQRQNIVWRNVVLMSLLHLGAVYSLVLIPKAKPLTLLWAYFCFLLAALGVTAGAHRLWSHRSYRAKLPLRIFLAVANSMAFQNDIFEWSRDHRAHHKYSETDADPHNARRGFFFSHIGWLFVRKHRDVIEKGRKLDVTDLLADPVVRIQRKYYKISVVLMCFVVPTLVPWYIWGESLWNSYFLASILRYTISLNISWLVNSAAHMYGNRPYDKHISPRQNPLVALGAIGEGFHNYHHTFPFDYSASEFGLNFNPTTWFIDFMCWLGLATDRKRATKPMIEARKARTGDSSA
Description: as §3, §4, §5, §6, §7, §8, §9

SCD5 [5] = biological target: T3, SCD5; assay: Growth of yeast surviving solely on human SCD5; assay type: cell-based, yeast expressing human SCD5; details: percent of the DMSO-treated condition
Description: (§10) FIG. 6 is a series of graphs showing that commercial Scd inhibitors target human SCD1/SCD5 in yeast. Yeast surviving solely on yeast OLE1, or human SCD1 or SCD5, were treated with four commercial Scd inhibitors at indicated concentrations. Data are expressed as a percent of the DMSO-treated condition.
(§11) FIG. 7 is a series of graphs showing that 1,2,4-oxadiazoles target human SCD1 and SCD5. Three “SCD” strains expressing yeast OLE1 or human SCD1 or SCD5 were treated with five representative 1,2,4-oxadiazoles and a cycloheximide toxicity control at concentrations indicated on the logic x-axis. The y-axis indicates the percent of the DMSO-treated condition. […] Approximately one half of all (250) 1,2,4-oxadiazoles tested inhibited SCD1 or SCD5 in a manner that was reversed by oleic/palmitoleic acid treatment.

yeast OLE1 = biological target: T4, yeast OLE1 (Saccharomyces cerevisiae, UniProt P21147); assay: Growth of yeast surviving solely on yeast OLE1; assay type: cell-based; details: percent of the DMSO-treated condition
T4 construct: expressed in transfected cells; host or cells: S. cerevisiae ole1Δ strain (W303 pdr1Δ pdr3Δ background), plasmid pRS316 with TDH3 promoter and CYC1 terminator
T4 sequence (P21147 1-510): T1 sequence (P21147 1-510)
Description: as §10, §11

SCD1 [6] = biological target: T2, SCD1; assay: Growth of yeast surviving solely on human SCD1; assay type: cell-based; details: percent of the DMSO-treated condition
Description: as §10, §11

SMILES: CCOc1ccc(-c2noc(C3CCN(C(=O)N4CCCCC4)CC3)n2)cc1OC [Compound 53]
- α-Syn Emax ([1]; percent above DMSO): 81%
- ApoE4 Emax ([2]; percent above DMSO): 296%

SMILES: Cc1ccc(-c2noc(C3CCN(C(=O)C4CC(=O)N(c5ccc(C)c(C)c5)C4)CC3)n2)cc1 (centres unmarked) [Compound 61]
- pIC50 (Ole1): 4.39
- OLE1 % Max Inhibition (Ole1): 71.50%
- SCD1 % Max Inhibition (SCD1 [3]): 2.37%
- pEC50 [1]: 4.71
- α-Syn Emax ([1]; percent above DMSO): 229%
- SCD5 % Max Inhibition (SCD5 [4]): 13.18%
- pEC50 ([2]; Homo sapiens): 4.71
- Emax ([2]; Homo sapiens, percent above DMSO): 465%

SMILES: C[C@@H]1C[C@@H]([C@H](O)CC2CC(=O)NC(=O)C2)C(=O)[C@@H](C)C1 [Cyclohexamide, cycloheximide]
- growth of SCD5-expressing yeast (SCD5 [5]): inhibited growth of all three strains with the same potency
- growth of Ole1-expressing yeast (yeast OLE1): inhibited growth of all three strains with the same potency
- growth of SCD1-expressing yeast (SCD1 [6]): inhibited growth of all three strains with the same potency

SMILES: CCOc1ccc(-c2noc(C3CCN(C(=O)[C@@H]4CC[C@H](c5ccccc5)N4)CC3)n2)cc1OC [compound 119]
- pIC50 (SCD1 [3]): < 4.35
- Emax ([1]; Homo sapiens, percent above DMSO, read-out: α-Syn Emax): 61%
- pEC50 ([1]; Homo sapiens): 4.68
- pIC50 (SCD5 [4]): < 4.35
